Read-outs that look alike come from different tables or passages of the source. Positions of bridges follow the written chain, without caps; N, C: chain ends. Non-standard residues stand in square brackets, D forms with d. Residues, ends and D or L forms follow the SMILES beside them. N(3-phenylpropyl)Gly = O=C(O)CNCCCc1ccccc1; Cit = NC(=O)NCCC[C@H](N)C(=O)O; Ahp(2) = CCCCC[C@H](N)C(=O)O; NMeNle = CCCC[C@H](NC)C(=O)O; Tle = CC(C)(C)[C@H](N)C(=O)O; NHexGly = CCCCCCNCC(=O)O; Nle = CCCC[C@H](N)C(=O)O; Orn = NCCC[C@H](N)C(=O)O
Target: T1, mouse VISTA (mVISTA) (Mus musculus, UniProt Q9D659)
T1 construct: expressed in transfected cells; host or cells: Human embryonic kidney 293T cells
T1 sequence (Q9D659 33-308): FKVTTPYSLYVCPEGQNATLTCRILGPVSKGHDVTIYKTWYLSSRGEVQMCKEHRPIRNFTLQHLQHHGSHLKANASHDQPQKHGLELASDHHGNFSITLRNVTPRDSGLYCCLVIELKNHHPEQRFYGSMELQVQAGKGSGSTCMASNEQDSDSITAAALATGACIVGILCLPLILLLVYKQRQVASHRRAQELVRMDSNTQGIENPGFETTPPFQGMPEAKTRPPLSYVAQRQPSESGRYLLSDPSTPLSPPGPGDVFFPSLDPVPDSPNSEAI
Test: Cell-Based Binding High-Content Assay For mVISTA (HC CBA mVISTA)
Conditions: 293T cells expressing mouse VISTA, competition with biotinylated peptide (2 nM)
In short: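 293T cells expressing mouse VISTA, with compounds added either after seeding ("no wash") or before seeding and then washed out after 1 h. Biotinylated peptide 2 nM for 30 min at room temperature, then detection with Alexa 647–streptavidin. After fixation with Hoechst stain, plates were high-content imaged; IC50 from four-parameter logistic fit.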

| SMILES | IC50 (read-out: HC CBA mVISTA IC50) [nM] | IC50 (read-out: CBA mVISTA IC50) [nM] |
| --- | --- | --- |
| CCCCCCN1CC(=O)N[C@@H](Cc2ccc(O)cc2)C(=O)N[C@@H](CCCC)C(=O)N[C@@H](CC(=O)O)C(=O)N[C@@H](CCCNC(=N)N)C(=O)N[C@@H](CC(C)C)C(=O)N[C@@H](CCCCC)C(=O)N2CCC[C@H]2C(=O)N[C@@H](C(C)C)C(=O)N[C@@H](Cc2ccc(O)cc2)C(=O)N[C@H](C(=O)NCC(=O)O)CSCC(=O)N[C@@H](Cc2ccccc2)C(=O)N[C@@H](Cc2ccc(O)cc2)C(=O)N[C@@H](CC(=O)O)C1=O [Example 1071] ({CH2CO}-FYD[NHexGly]Y[Nle]DRL[Ahp(2)]PVYCG-OH; thioether N-14) | 17.7 |  |
| CCCCCCN1CC(=O)N[C@@H](Cc2ccc(O)cc2)C(=O)N[C@@H](CC(C)C)C(=O)N[C@@H](CC(N)=O)C(=O)N[C@@H](CCCNC(=N)N)C(=O)N[C@@H](CC(C)C)C(=O)N[C@@H](CCCCC)C(=O)N2CCC[C@H]2C(=O)N[C@@H](C(C)C)C(=O)N[C@@H](C(C)C)C(=O)N[C@H](C(=O)N[C@@H](CO)C(=O)O)CSCC(=O)N[C@@H](Cc2ccccc2)C(=O)N[C@@H](Cc2ccc(O)cc2)C(=O)N[C@@H](CC(=O)O)C1=O [Example 1072] ({CH2CO}-FYD[NHexGly]YLNRL[Ahp(2)]PVVCS-OH; thioether N-14) | 5.8 |  |
| CCCCCCN1CC(=O)N[C@@H](Cc2ccc(O)cc2)C(=O)N[C@@H](CCCC)C(=O)N[C@@H](CC(=O)O)C(=O)N[C@@H](CCCNC(=N)N)C(=O)N(C)[C@@H](CCCC)C(=O)N[C@@H](CCCCC)C(=O)N2CCC[C@H]2C(=O)N[C@@H](C(C)C)C(=O)N[C@@H](CC(=O)O)C(=O)N[C@H](C(=O)N[C@@H](CC(=O)O)C(N)=O)CSCC(=O)N[C@@H](Cc2ccccc2)C(=O)N[C@@H](Cc2ccc(O)cc2)C(=O)N[C@@H](CC(=O)O)C1=O [Example 1073] ({CH2CO}-FYD[NHexGly]Y[Nle]DR[NMeNle][Ahp(2)]PVDCD-NH2; thioether N-14) |  | 6.6 |
| CCCCCCN1CC(=O)N[C@@H](Cc2ccc(O)cc2)C(=O)N[C@@H](CCCCC)C(=O)N[C@@H](CC(=O)O)C(=O)N[C@@H](CCCNC(=N)N)C(=O)N(C)[C@@H](CCCC)C(=O)N[C@@H](CCCCC)C(=O)N2CCC[C@H]2C(=O)N[C@@H](C(C)C)C(=O)N[C@@H](CC(=O)O)C(=O)N[C@H](C(=O)N[C@@H](CC(=O)O)C(N)=O)CSCC(=O)N[C@@H](Cc2ccccc2)C(=O)N[C@@H](Cc2ccc(O)cc2)C(=O)N[C@@H](CC(=O)O)C1=O [Example 1074] ({CH2CO}-FYD[NHexGly]Y[Ahp(2)]DR[NMeNle][Ahp(2)]PVDCD-NH2; thioether N-14) |  | 9.7 |
| CCCCCCN1CC(=O)N[C@@H](Cc2ccc(O)cc2)C(=O)N[C@@H](CCCC)C(=O)N[C@@H](CC(=O)O)C(=O)N[C@@H](CCCNC(=N)N)C(=O)N(C)[C@@H](CCCC)C(=O)N[C@@H](CCCCC)C(=O)N2CCC[C@H]2C(=O)N[C@@H](C(C)C)C(=O)N[C@@H](CC(=O)O)C(=O)N[C@H](C(=O)N[C@H](CC(=O)O)C(N)=O)CSCC(=O)N[C@@H](Cc2ccccc2)C(=O)N[C@@H](Cc2ccc(O)cc2)C(=O)N[C@@H](CC(=O)O)C1=O [Example 1075] ({CH2CO}-FYD[NHexGly]Y[Nle]DR[NMeNle][Ahp(2)]PVDC[dD]-NH2; thioether N-14) |  | 19.1 |
| CCCCCCN1CC(=O)N[C@@H](Cc2ccc(O)cc2)C(=O)N[C@@H](CCCCC)C(=O)N[C@@H](CC(=O)O)C(=O)N[C@@H](CCCNC(=N)N)C(=O)N(C)[C@@H](CCCC)C(=O)N[C@@H](CCCCC)C(=O)N2CCC[C@H]2C(=O)N[C@@H](C(C)C)C(=O)N[C@@H](CC(=O)O)C(=O)N[C@H](C(=O)N[C@H](CC(=O)O)C(N)=O)CSCC(=O)N[C@@H](Cc2ccccc2)C(=O)N[C@@H](Cc2ccc(O)cc2)C(=O)N[C@@H](CC(=O)O)C1=O [Example 1076] ({CH2CO}-FYD[NHexGly]Y[Ahp(2)]DR[NMeNle][Ahp(2)]PVDC[dD]-NH2; thioether N-14) |  | 21.5 |
| CCCCCCN1CC(=O)N[C@@H](Cc2ccc(O)cc2)C(=O)N[C@@H](CCCCC)C(=O)N[C@@H](CC(=O)O)C(=O)N[C@@H](CCCNC(=N)N)C(=O)N(C)[C@@H](CCCC)C(=O)N[C@@H](CCCCC)C(=O)N2CCC[C@H]2C(=O)N[C@@H](C(C)C)C(=O)N[C@@H](CC(=O)O)C(=O)N[C@H](C(=O)N[C@@H](CCC(=O)O)C(N)=O)CSCC(=O)N[C@@H](Cc2ccccc2)C(=O)N[C@@H](Cc2ccc(O)cc2)C(=O)N[C@@H](CC(=O)O)C1=O [Example 1077] ({CH2CO}-FYD[NHexGly]Y[Ahp(2)]DR[NMeNle][Ahp(2)]PVDCE-NH2; thioether N-14) |  | 14.7 |
| CCCCCCN1CC(=O)N[C@@H](Cc2ccc(O)cc2)C(=O)N[C@@H](CCCC)C(=O)N[C@@H](CC(=O)O)C(=O)N[C@@H](CCCNC(=N)N)C(=O)N(C)[C@@H](CCCC)C(=O)N[C@@H](CCCCC)C(=O)N2CCC[C@H]2C(=O)N[C@@H](C(C)C)C(=O)N[C@@H](CC(=O)O)C(=O)N[C@H](C(=O)N[C@@H](CCC(=O)O)C(N)=O)CSCC(=O)N[C@@H](Cc2ccccc2)C(=O)N[C@@H](Cc2ccc(O)cc2)C(=O)N[C@@H](CC(=O)O)C1=O [Example 1078] ({CH2CO}-FYD[NHexGly]Y[Nle]DR[NMeNle][Ahp(2)]PVDCE-NH2; thioether N-14) |  | 17.7 |
| CCCCCCN1CC(=O)N[C@@H](Cc2ccc(O)cc2)C(=O)N[C@@H](CCCCC)C(=O)NCC(=O)N[C@@H](CCCNC(=N)N)C(=O)N(C)[C@@H](CCCC)C(=O)N[C@@H](CCCCC)C(=O)N2CCC[C@H]2C(=O)N[C@@H](C(C)C)C(=O)N[C@@H](CO)C(=O)N[C@H](C(=O)NCC(N)=O)CSCC(=O)N[C@@H](Cc2ccccc2)C(=O)N[C@@H](Cc2ccc(O)cc2)C(=O)N[C@@H](CC(=O)O)C1=O [Example 1079] ({CH2CO}-FYD[NHexGly]Y[Ahp(2)]GR[NMeNle][Ahp(2)]PVSCG-NH2; thioether N-14) |  | 24.6 |
| CCCCCCN1CC(=O)N[C@@H](Cc2ccc(O)cc2)C(=O)N[C@@H](CC(C)C)C(=O)NCC(=O)N[C@@H](CCCNC(=N)N)C(=O)N(C)[C@@H](CCCC)C(=O)N[C@@H](CCCCC)C(=O)N2CCC[C@H]2C(=O)N[C@@H](C(C)C)C(=O)N[C@@H](CO)C(=O)N[C@H](C(=O)NCC(=O)O)CSCC(=O)N[C@@H](Cc2ccccc2)C(=O)N[C@@H](Cc2ccc(O)cc2)C(=O)N[C@@H](CC(=O)O)C1=O [Example 1080] ({CH2CO}-FYD[NHexGly]YLGR[NMeNle][Ahp(2)]PVSCG-OH; thioether N-14) |  | 18.6 |
| CCCCCCN1CC(=O)N[C@@H](Cc2ccc(O)cc2)C(=O)N[C@@H](CC(C)C)C(=O)NCC(=O)N[C@@H](CCCNC(=N)N)C(=O)N(C)[C@@H](CCCC)C(=O)N[C@@H](CCCCC)C(=O)N2CCC[C@H]2C(=O)N[C@@H](C(C)C)C(=O)N[C@@H](CO)C(=O)N[C@H](C(=O)NCC(N)=O)CSCC(=O)N[C@@H](Cc2ccccc2)C(=O)N[C@@H](Cc2ccc(O)cc2)C(=O)N[C@@H](CC(=O)O)C1=O [Example 1081] ({CH2CO}-FYD[NHexGly]YLGR[NMeNle][Ahp(2)]PVSCG-NH2; thioether N-14) |  | 4.6 |
| CCCCCCN1CC(=O)N[C@@H](Cc2ccc(O)cc2)C(=O)N[C@@H](CCCC)C(=O)N[C@@H](CC(N)=O)C(=O)N[C@@H](CCCNC(N)=O)C(=O)N(C)[C@@H](CCCC)C(=O)N[C@@H](CCCCC)C(=O)N2CCC[C@H]2C(=O)N[C@@H](C(C)C)C(=O)N[C@@H](CC(=O)O)C(=O)N[C@H](C(=O)NCC(=O)O)CSCC(=O)N[C@@H](Cc2ccccc2)C(=O)N[C@@H](Cc2ccc(O)cc2)C(=O)N[C@@H](CC(=O)O)C1=O [Example 1082] ({CH2CO}-FYD[NHexGly]Y[Nle]N[Cit][NMeNle][Ahp(2)]PVDCG-OH; thioether N-14) |  | 8.1 |
| CCCCCCN1CC(=O)N[C@@H](Cc2ccc(O)cc2)C(=O)N[C@@H](CCCC)C(=O)N[C@@H](CC(N)=O)C(=O)N[C@@H](CCCNC(=N)N)C(=O)N(C)[C@@H](CCCC)C(=O)N[C@@H](CCCCC)C(=O)N2CCC[C@H]2C(=O)N[C@@H](C(C)C)C(=O)N[C@@H](CC(=O)O)C(=O)N[C@H](C(=O)NCC(=O)O)CSCC(=O)N[C@@H](Cc2ccccc2)C(=O)N[C@@H](Cc2ccc(O)cc2)C(=O)N[C@@H](CC(=O)O)C1=O [Example 1083] ({CH2CO}-FYD[NHexGly]Y[Nle]NR[NMeNle][Ahp(2)]PVDCG-OH; thioether N-14) |  | 39.1 |
| CCCCC[C@@H]1NC(=O)[C@H](CCCC)N(C)C(=O)[C@H](CCCN)NC(=O)[C@H](CC(N)=O)NC(=O)[C@H](CC(C)C)NC(=O)[C@H](Cc2ccc(O)cc2)NC(=O)CN(CCCc2ccccc2)C(=O)[C@H](CC(=O)O)NC(=O)[C@H](Cc2ccc(O)cc2)NC(=O)[C@H](Cc2ccccc2)NC(=O)CSC[C@@H](C(=O)NCC(N)=O)NC(=O)[C@H](CO)NC(=O)[C@H](C(C)(C)C)NC(=O)[C@@H]2CCCN2C1=O [Example 1084] ({CH2CO}-FYD[N(3-phenylpropyl)Gly]YLN[Orn][NMeNle][Ahp(2)]P[Tle]SCG-NH2; thioether N-14) | 37.8 |  |
| CCCCC[C@@H]1NC(=O)[C@H](CCCC)N(C)C(=O)[C@H](CCCN)NC(=O)[C@H](CC(N)=O)NC(=O)[C@H](CC(C)C)NC(=O)[C@H](Cc2ccc(O)cc2)NC(=O)CN(CCCc2ccccc2)C(=O)[C@H](CC(=O)O)NC(=O)[C@H](Cc2ccc(O)cc2)NC(=O)[C@H](Cc2ccccc2)NC(=O)CSC[C@@H](C(=O)NCC(N)=O)NC(=O)[C@H](CO)NC(=O)[C@H](C(C)C)NC(=O)[C@@H]2CCCN2C1=O [Example 1085] ({CH2CO}-FYD[N(3-phenylpropyl)Gly]YLN[Orn][NMeNle][Ahp(2)]PVSCG-NH2; thioether N-14) | 31.8 |  |

From patent publication US20240218022A1, “ANTI-VISTA MACROCYCLIC PEPTIDES AND COMPOSITIONS” (BRISTOL-MYERS SQUIBB COMPANY, priority 2022, published 2024)
